Source: PMC5469366 (Journal of medicinal chemistry, 2017)
Values joined by “and” are separate entries in the source; they are usually repeats but may differ in a detail not shown here. Equal entries are not always repeated.

Tests used:
A. baumannii (ATCC19606) [1] = experiment: Mouse septicemia model, survival; format: in vivo, C57BL/6 mice
Caco-2 permeability = format: in vitro ADME; conditions: human
[2] = system: MDR-A. baumannii ATCC BAA-1800; experiment: MIC/MBC broth dilution, MDR A. baumannii; format: cell-based, Acinetobacter baumannii; conditions: for MBC / MIC: MDR-A. baumannii ATCC BAA-1800, broth dilution
A. baumannii (ATCC19606) [3] = experiment: Spontaneous mutation frequency on agar; format: cell-based, Acinetobacter baumannii; conditions: 4xMIC concentration
Vero cells = experiment: Cytotoxicity; format: cell-based, monkey; conditions: MTT assay
A. baumannii ATCC 19606 = experiment: MIC/MBC broth dilution, drug sensitive A. baumannii; format: cell-based, Acinetobacter baumannii; conditions: for MBC: kills 99.9% of bacteria
[4] = system: A. baumannii (ATCC 19606); experiment: Micro dilution broth checkerboard; format: cell-based, Acinetobacter baumannii; conditions: wells at growth–no growth interface
[5] = in vivo; cited from earlier work
[6] = combination of valnemulin and doxycycline

Molecule	MBC [2]	MIC [2]	MIC (A. baumannii ATCC 19606)	MBC (A. baumannii ATCC 19606)	MIC CA and CB (concentrations of A and B in combination) [4, 6]	other results
C=C[C@]1(C)C[C@@H](OC(=O)CSC(C)(C)CNC(=O)[C@H](N)C(C)C)[C@]2(C)[C@H](C)CC[C@]3(CC[C@@H](O)[C@H]32)[C@@H](C)[C@@H]1O [compound 1, (3R,3aR,4R,5R,7S,8S,9R,9aS,12R)-3,8-dihydroxy-4,7,9,12-tetramethyl-7-vinyldecahydro-4,9a-propanocyclopenta[8]annulen-5-yl 2-((1-((R)-2-amino-3-methylbutanamido)-2-methylpropan-2-yl)thio)acetate]						effectiveness in mouse septicemia model (A. baumannii (ATCC19606) [1]; IP single dose, 2 to 60 mg/kg): showed effectiveness in the same in vivo studies, but required higher dosage than that with 1-Dox35/1; Papp (Caco-2 permeability): > 1 ×10⁻⁶ cm/s; concentrations at which the MDR strain was killed ([2]; A. baumannii ATCC BAA-1800): 6.25 to 12.5 µg/mL; spontaneous resistance mutation frequency (A. baumannii (ATCC19606) [3]): 1×10^−8
colistin	25.0 µg/mL	>12.5 µg/mL	3.13 µg/mL	6.25 µg/mL		Cytotoxicity IC50 (Vero cells): > 200 µg/mL
C=C[C@]1(C)C[C@@H](OC(=O)CSC(C)(C)CNC(=O)[C@H](N)C(C)C)[C@]2(C)[C@H](C)CC[C@]3(CCC(=O)[C@H]32)[C@@H](C)[C@@H]1O [Valnemulin, valnemulin]					0.78 µg/mL and 1.56 µg/mL	half-lives in plasma [5]: 1.3 to 2.9 h
C[C@H]1c2cccc(O)c2C(=O)C2=C(O)[C@]3(O)C(=O)C(C(N)=O)=C(O)[C@@H](N(C)C)[C@@H]3[C@@H](O)[C@@H]21.O [Doxycycline, doxycycline]					0.025 µg/mL and 0.05 µg/mL	MIC CA and CB (concentrations of A and B in combination) ([4]; combination of 1 and doxycycline): 0.025 µg/mL and 0.05 µg/mL
NC[C@H]1O[C@H](O[C@H]2[C@H](O)[C@@H](O[C@H]3O[C@H](CO)[C@@H](O)[C@H](N)[C@H]3O)[C@H](N)C[C@@H]2N)[C@H](N)C[C@@H]1O [Tobramycin, tobramycin]						survival of mice (A. baumannii (ATCC19606) [1]; 6.0 mg/kg dose IP): survived the mice
(3R,3aR,4R,5R,7S,8S,9R,9aS,12R)-3,8-dihydroxy-4,7,9,12-tetramethyl-7-vinyldecahydro-4,9a-propanocyclopenta[8]annulen-5-yl 2-((1-((R)-2-((S)-2,5-diaminopentanamido)-3-methylbutanamido)-2-methylpropan-2-yl)thio)acetate [compound 2]	>12.5 µg/mL	3.13 µg/mL	3.13 µg/mL	>12.5 µg/mL		
